Results: paper PMC11091976, “Shorter Peptide Nucleic Acid Probes Improve Affibody-Mediated Peptide Nucleic Acid-Based Pretargeting” (ACS Pharmacology & Translational Science, 2024)

What was measured:
[1] = test system: SKOV-3 xenografts; assay: Biodistribution with preinjection of primary agent (pretargeting); set-up: species or system BALB/C nu/nu mice; conditions: mouse, in vivo
Excerpt: Biodistribution measurements of all radiolabeled PNA-based probes indicated rapid clearance from the blood as well as from other organs and tissues, which is a crucial requirement for the success of in vivo pretargeting strategies.
Animal studies were planned in agreement with EU Directive 2010/63/EU for animal experiments and Swedish national legislation concerning the protection of laboratory animals and were approved by the Ethics Committee for Animal Research in Uppsala, Sweden (animal permission C4/16). HER2-positive xenografts were implanted by subcutaneous injection of 10^7 SKOV-3 cells in the right hind legs of female BALB/C nu/nu mice. Three weeks after implantation, mice were randomized into 8 groups, with 4 mice in each group. At the time of the experiment, the average animal weight was 20 ± 1 g. The average tumor weight was 0.26 ± 0.14 g. The mice were euthanized at predetermined time points by overdose of Ketamine/Xylazine anesthesia, followed by heart puncture. The organs of interest such as blood, lung, liver, spleen, kidney, muscle, bone, and tumor were collected, weighed, and subsequently their radioactivity was measured. Organs and tumor uptake were calculated as the percentage of the injected dose per gram of the sample (%ID/g). […]

[2] = test system: Z-HP9; assay: Multicycle kinetic SPR, immobilized Z-HP9; assay type: binding; conditions: MCK SPR
Experimental: We utilized SPR on a Biacore T200 instrument (Cytiva) to examine how secondary PNA probes (6-mer HP19, 7-mer HP21, 8-mer HP20, and 9-mer HP16) bind to primary agents. These experiments were conducted using dextran-coated CM5 sensor chips and PBS-T buffer at pH 7.4. The ligands were immobilized through a standard EDC/NHS coupling method, and the chip surface was sealed with ethanolamine. A reference surface with no primary agent was also included.
Association and dissociation times were set at 700 and 1800 s, respectively, with regeneration accomplished through a 30 s injection of 10 mM glycine-HCl, pH 1.5.
All SPR experiments were performed in duplicate, and data analysis was conducted using the Biacore T200 Evaluation software version 2.0 with a 1:1 binding model.

[3] = test system: HP9; assay: UV melting of PNA:PNA duplex with primary probe HP9; assay type: physicochemical; conditions: UV 260 nm, 20-95 °C at 1 °C/min, 5 μM each probe, 10 mM phosphate buffer, 10 mM KCl, pH 7.4
Experimental: (§1) The melting temperatures of secondary probes after duplex formation with primary probes were also measured by monitoring the absorbance at 260 nm as a function of temperature (see Figure S23). All probe pairs had melting temperatures well above 37 °C (body temperature) and ranged from 51 °C for the HP6:HP19 pair with 6 complementary bases to 82 °C for the previously studied HP15:HP18 pair with 15 complementary bases (see Figure 3B and Table 2). […] This secondary structure is typically adopted by antiparallel and L-amino acid-modified PNA–PNA duplexes at neutral pH.[49]
(§2) Figure S23: Normalized temperature melting profiles from 20–95°C for different primary and secondary probe pairs. UV melting curves at 260 nm. (A) HP15 (15-mer) toward secondary 15-, 12- and 9-mers. (B) HP12 (12-mer) toward secondary 12-, 9-, 8-, 7- and 6-mers. (C) HP9 (9-mer) toward secondary 9-, 8-, 7- and 6-mers. (D) HP6 (6-mer) toward secondary 6-mer.
(§3) Concentrations of duplexes in A–D are 5 μM in 10 mM […] with 10 mM KCl at pH 7.4.
(§4) (also on this page, place not known: Fraction melted Fraction meltedFraction melted Fraction melted) […]
(§5) Supplementary Material and methods […]
(§6) Biophysical characterization of PNA:PNA duplexes using CD Spectroscopy and […]
(§7) Circular dichroism (CD) and UV melts of PNA:PNA duplexes were measured on a CD spectrometer (Applied Photophysics, Leatherhead, UK) with Peltier temperature control and an external temperature probe. RP-HPLC purified and lyophilized PNA probes were dissolved in 10 mM phosphate buffer with 10 mM KCl at pH 7.4. Samples contained both primary and complementary secondary PNA probes at a final concentration of 5 µM for each probe. These samples were initially heated to 95°C for five minutes, allowed to cool to room temperature, and then transferred to a quartz cuvette with a 1.0 cm path length. A temperature probe was inserted into the solution through the cuvette's rubber cap. […]
(§8) from 20°C to 95°C with a 1°C/min temperature gradient. Simultaneously, the UV absorbance at 260 nm was recorded as a function of temperature. Fraction melted data was calculated […]
(§9) Fraction melted = 1 ― UVds― UVss , where UVss and UVds are the UV absorbances at 95°C and 20°C, respectively. The melting temperature (Tm) was determined as the maximum of the first derivative of the melting curve and was computed using the Global 3 analysis software (Applied Photophysics, […]
(§10) CD spectra in the range of 200–300 nm were recorded for all hybridized PNA:PNA pairs at 20°C before and after the UV melting experiments. All CD spectra were baseline subtracted and presented as an average of five scans.

[4] = test system: HP12; assay: UV melting of PNA:PNA duplex with primary probe HP12; assay type: physicochemical; conditions: UV 260 nm, 20-95 °C at 1 °C/min, 5 μM each probe, 10 mM phosphate buffer, 10 mM KCl, pH 7.4
Experimental: as §1, §2, §3, §4, §5, §6, §7, §8, §9, §10

Compound	tumor-associated activity [1]	ka ([2]; primary probe HP9 (Z-HP9 immobilized), 25 °C, 1.4-70 nM, 1:1 model, duplicates)	Kd ([2]; primary probe HP9, 25 °C)	kd ([2]; primary probe HP9, 25 °C)	Kd ([2]; primary probe HP9, 37 °C)	ka ([2]; primary probe HP9, 37 °C)	kd ([2]; primary probe HP9, 37 °C)	Tm [3]	Tm [4]
NC(=O)[C@H](Cc1ccc(O)cc1)NC(=O)[C@H](CCC(=O)O)NC(=O)[C@H](CCC(=O)O)NC(=O)CN(CCNC(=O)CN(CCNC(=O)CN(CCNC(=O)CN(CCNC(=O)CN(CCNC(=O)CN(CCNC(=O)CN(CCNC(=O)CN(CCNC(=O)CN(CCNC(=O)[C@H](CO)NC(=O)[C@H](CO)NC(=O)COCCOCCNC(=O)CN1CCN(CC(=O)O)CCN(CC(=O)O)CCN(CC(=O)O)CC1)C(=O)Cn1cnc2c(N)ncnc21)C(=O)Cn1cnc2c(N)ncnc21)C(=O)Cn1ccc(N)nc1=O)C(=O)Cn1cnc2c(N)ncnc21)C(=O)Cn1ccc(N)nc1=O)C(=O)Cn1ccc(N)nc1=O)C(=O)Cn1cnc2c(N)ncnc21)C(=O)Cn1cnc2c(=O)[nH]c(N)nc21)C(=O)Cn1cnc2c(=O)[nH]c(N)nc21 [[^177Lu]Lu-HP16, metal not drawn]	1.91 ± 0.831 %ID/g	–	–	–	–	–	–	–	–
DOTA-AEEA-SS-aacaccagg-EEY-NH2 [HP16, 9-mer secondary PNA probe with DOTA]	–	1.8 × 10^5 M^–1 s^–1	0.27 nM	4.8 × 10^–5 s^–1	0.39 nM	2.9 × 10^5 M^–1 s^–1	1.1 × 10^–4 s^–1	65 °C	68 °C
